Patent US20170273922A1, “UREA AND BIS-UREA BASED COMPOUNDS AND ANALOGUES THEREOF USEFUL IN THE TREATMENT OF ANDROGEN RECEPTOR MEDIATED DISEASES OR DISORDERS” (THE ROYAL INSTITUTION FOR THE ADVACEMENT OF LEARNING/MCGILL …, priority 2014, published 2017)
Blank lines part the entries; values can stand above or below the molecule they belong to.

Columns and labels:
Format in all cases: cell-based
IRF3DBD-AR(1-547) = biological target: T1, IRF3DBD-AR(1-547) (Homo sapiens, UniProt P10275); assay: IRF3DBD-AR(1-547) ISRE-luc reporter assay; conditions: PC3 cells, 24 h
T1 construct: IRF3-AR(1-547) is the fusion of IRF3 DBD with the AR NTD (1-547); expressed in transfected cells
T1 sequence (P10275 1-547): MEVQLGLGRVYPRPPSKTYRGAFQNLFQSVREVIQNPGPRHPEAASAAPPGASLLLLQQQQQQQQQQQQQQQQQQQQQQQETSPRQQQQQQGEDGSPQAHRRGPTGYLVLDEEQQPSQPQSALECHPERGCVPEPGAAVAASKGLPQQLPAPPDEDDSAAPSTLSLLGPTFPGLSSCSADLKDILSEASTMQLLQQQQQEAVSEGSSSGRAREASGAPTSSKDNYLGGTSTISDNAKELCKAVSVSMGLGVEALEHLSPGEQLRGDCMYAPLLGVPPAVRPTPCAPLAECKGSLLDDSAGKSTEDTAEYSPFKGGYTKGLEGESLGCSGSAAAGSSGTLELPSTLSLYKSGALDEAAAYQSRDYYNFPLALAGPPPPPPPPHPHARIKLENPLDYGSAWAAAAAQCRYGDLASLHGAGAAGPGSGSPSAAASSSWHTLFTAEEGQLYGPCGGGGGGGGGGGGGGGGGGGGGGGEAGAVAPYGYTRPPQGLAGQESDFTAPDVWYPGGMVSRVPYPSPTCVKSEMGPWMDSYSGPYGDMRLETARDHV

LNCaP cells = assay: MTT assay (cytotoxicity), LNCaP cells
Protocol: (§1) MTT assays: LNCaP, 22Rv1, Du145, H1975, A549, MB231 and MCF-7 cells are maintained in RPMI 1640 supplemented with 10% FBS. Cells were seeded at a density of 6-7×10^3 cells per well in 96-well plates. After overnight incubation, cells in fresh RPMI 1640 supplemented with 10% FBS were exposed to DMSO vehicle control or test compounds at designated concentrations for 72 h. Viable cells were evaluated by MTT assays. Experiments were performed in triplicate and repeated at least twice.

DU145 cells = assay: MTT assay (cytotoxicity), DU145 cells; conditions: 72 h, Table 2.1
Protocol: as §1

22Rv1 cells = assay: MTT assay (cytotoxicity), 22Rv1 cells
Protocol: as §1

full-length IRF3 = biological target: T2, full-length IRF3 (Homo sapiens, UniProt Q14653); assay: Full-length IRF3 ISRE-luc reporter assay; conditions: PC3 cells, 24 h
T2 construct: co-transfected with full-length IRF3 or IRF3DBD-AR(1-547) expressing plasmids; expressed in transfected cells
T2 sequence (Q14653 1-427): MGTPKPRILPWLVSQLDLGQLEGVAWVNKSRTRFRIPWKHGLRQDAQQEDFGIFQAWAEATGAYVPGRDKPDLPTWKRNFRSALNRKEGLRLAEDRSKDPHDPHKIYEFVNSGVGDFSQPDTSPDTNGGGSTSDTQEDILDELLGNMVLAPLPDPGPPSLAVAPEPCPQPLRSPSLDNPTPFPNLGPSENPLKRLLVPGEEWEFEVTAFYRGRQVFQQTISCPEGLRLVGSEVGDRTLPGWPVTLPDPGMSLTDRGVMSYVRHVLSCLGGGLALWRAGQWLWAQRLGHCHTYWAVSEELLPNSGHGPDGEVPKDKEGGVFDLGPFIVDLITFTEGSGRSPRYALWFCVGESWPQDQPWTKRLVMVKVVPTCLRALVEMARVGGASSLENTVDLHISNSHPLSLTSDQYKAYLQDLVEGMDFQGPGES
From the text: For all of the others, cells were co-transfected with full-length IRF3 or IRF3DBD-AR(1-547) expressing plasmids and with the ISRE-luc reporter and pRL-TK plasmids. […] As IRF3DBD-AR(1-547) contains the DBD of IRF3, ISRE-luc reporter instead of the PSA-luc reporter was used in our assays.
HEK293 cells were co-transfected with IRF3DBD(1-133) or IRF3DBD-AR(1-547) or IRF3DBD-AR(181-547) or full-length IRF3 expressing plasmids and with the ISRE-luc reporter and the Renilla luciferase pRL-TK plasmids.
Here, IRF3-AR(1-547) is the fusion of IRF3 DBD with the AR NTD (1-547). […] The plasmids expressing IRF3-AR(1-547) (A) or wild-type IRF3 (B) or IRF3 DBD (for NT) as well as ISRE-luc and pRL-TK were transiently transfected into PC3 cells. […] Bic, bicalutamide; EPI, EPI-001.

[1] = MTT assay (cytotoxicity), LNCaP cells; conditions: human, LNCaP cells
Protocol: as §1

[2] = MTT assay (cytotoxicity), DU145 cells; conditions: human, DU145 cells
Protocol: as §1

[3] = MTT assay (cytotoxicity), 22Rv1 cells; conditions: human, 22Rv1 cells
Protocol: as §1

[4] = MTT assay (72 h), liver hepatocellular carcinoma cell line of Table 6.1; conditions: human, HepG2 cells (liver hepatocellular carcinoma), 72 h treatment, read-out: Cytotoxicity (IC50, μM) HepG2
[5] = MTT assay (cytotoxicity), H1975 cells; conditions: human, 72 h treatment, Table 6.1
Protocol: as §1

[6] = MTT assay (cytotoxicity), MCF-7 cells; conditions: human, 72 h treatment, Table 6.1
Protocol: as §1

[7] = MTT assay (cytotoxicity), A549 cells; conditions: human, 72 h treatment, Table 6.1
Protocol: as §1

[8] = MTT assay (cytotoxicity), MB231 cells; conditions: human, 72 h treatment, Table 6.1
Protocol: as §1

[9] = biological target: T3, T877A mutant of full-length AR (Homo sapiens, UniProt P10275, T878A); assay: AR T877A mutant PSA-luc reporter assay in PC3 cells; conditions: absence of DHT, 24 h
T3 sequence (P10275 1-920 T878A): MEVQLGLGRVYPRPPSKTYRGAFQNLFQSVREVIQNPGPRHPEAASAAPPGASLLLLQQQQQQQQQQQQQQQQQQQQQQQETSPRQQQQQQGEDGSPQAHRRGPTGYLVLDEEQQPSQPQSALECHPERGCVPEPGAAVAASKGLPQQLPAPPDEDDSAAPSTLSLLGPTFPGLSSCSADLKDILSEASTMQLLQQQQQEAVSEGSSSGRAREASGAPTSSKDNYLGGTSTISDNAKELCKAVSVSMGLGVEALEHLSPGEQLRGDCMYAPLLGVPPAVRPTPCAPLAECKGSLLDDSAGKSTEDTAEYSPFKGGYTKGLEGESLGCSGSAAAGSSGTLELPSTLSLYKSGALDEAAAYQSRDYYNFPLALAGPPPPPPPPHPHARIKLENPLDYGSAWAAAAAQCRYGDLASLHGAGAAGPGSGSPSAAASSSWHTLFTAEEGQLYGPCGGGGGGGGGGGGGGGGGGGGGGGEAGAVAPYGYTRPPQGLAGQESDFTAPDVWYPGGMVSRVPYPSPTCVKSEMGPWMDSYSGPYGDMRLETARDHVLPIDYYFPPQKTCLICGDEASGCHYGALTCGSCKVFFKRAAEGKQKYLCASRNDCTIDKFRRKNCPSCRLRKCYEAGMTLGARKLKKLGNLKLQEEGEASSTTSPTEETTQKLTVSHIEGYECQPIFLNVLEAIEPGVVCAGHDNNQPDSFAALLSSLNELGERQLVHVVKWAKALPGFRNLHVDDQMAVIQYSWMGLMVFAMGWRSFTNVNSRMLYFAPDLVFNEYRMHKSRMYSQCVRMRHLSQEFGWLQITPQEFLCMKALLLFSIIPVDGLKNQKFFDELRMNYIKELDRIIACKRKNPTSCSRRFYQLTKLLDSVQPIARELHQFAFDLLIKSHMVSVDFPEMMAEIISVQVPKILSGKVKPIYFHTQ
From the text: ENZ, enzalutamide; Bic, bicalutamide; OHF, hydroxyflutamide.

inhibition of IRF3-AR(1-547)-dependent ISRE-luc reporter activity (IRF3DBD-AR(1-547)): potently inhibit
activity against wild-type IRF3 (ISRE-luc) (full-length IRF3): inactive
SMILES: O=C(N/C=C/c1cc(C(F)(F)F)cc(C(F)(F)F)c1)Nc1cnccn1 [Compound 528]
IC50 (LNCaP cells; 72 h, Table 2.1): 0.12 µM
IC50 (LNCaP cells; LNCaP cells, 72 h treatment, Table 6.1): 0.12 µM
IC50 (DU145 cells): < 1 µM
IC50 (22Rv1 cells; 22Rv1 cells, 72 h treatment, Table 6.1): < 1 µM
IC50 (22Rv1 cells; 72 h, Table 2.1): < 1 µM

SMILES: O=C(Nc1cc(C(F)(F)F)cc(C(F)(F)F)c1)Nc1ccc2[nH]ccc2c1 [Compound 530]
IC50 at 72 h ([1]; 72 h, Table 4.1): 6 µM
IC50 at 72 h ([2]; Table 4.1): 8.3 µM
IC50 at 72 h ([3]; 72 h, Table 4.1): 7.1 µM

SMILES: O=C(N/C=C/c1cc(C(F)(F)F)cc(C(F)(F)F)c1)Nc1ccn(C(=O)N/C=C/c2cc(C(F)(F)F)cc(C(F)(F)F)c2)c(=O)n1 [Compound 532]
IC50 at 72 h ([1]; 72 h, Table 5.1): 2.4 µM
IC50 at 72 h ([2]; Table 5.1): 5.1 µM
IC50 at 72 h ([3]; 72 h, Table 5.1): 4.3 µM

SMILES: CC/C=C(\C)CN(C(=O)N/C=C/c1cc(C(F)(F)F)cc(C(F)(F)F)c1)c1ccc(C#N)nc1 [Compound 534]
IC50 at 72 h ([1]; 72 h, Table 2.5): 6 µM
IC50 at 72 h ([2]; Table 2.5): 7.1 µM
IC50 at 72 h ([3]; 72 h, Table 2.5): 7.3 µM

SMILES: O=C(Nc1cccc(C(F)(F)F)c1)Nc1ccncn1 [Compound 574]
IC50 at 72 h ([1]; 72 h, Table 4.1): 13.8 µM
IC50 at 72 h ([2]; Table 4.1): > 20 µM
IC50 at 72 h ([3]; 72 h, Table 4.1): > 20 µM

SMILES: O=C(Nc1cc(C(F)(F)F)cc(C(F)(F)F)c1)Nc1ccncn1 [Compound 578]
IC50 at 72 h ([1]; 72 h, Table 4.1): 1.3 µM
IC50 at 72 h ([2]; Table 4.1): 2.4 µM
IC50 at 72 h ([3]; 72 h, Table 4.1): 5.5 µM

SMILES: O=C(Nc1cccc(C(F)(F)F)c1)Nc1ccc(C(=O)Nc2ccccc2F)c(C(F)(F)F)c1 [Compound 822]
IC50 at 72 h ([1]; 72 h treatment, Table 6.1): 3 µM
IC50 at 72 h [4]: 3.2 µM
IC50 at 72 h [5]: 6.3 µM
IC50 at 72 h [6]: 4.5 µM
IC50 at 72 h [7]: 6 µM
IC50 at 72 h ([3]; 72 h treatment, Table 6.1): 4 µM
IC50 at 72 h [8]: 8.1 µM

inhibition of IRF3-AR(1-547)-dependent ISRE-luc reporter activity (IRF3DBD-AR(1-547)): potently inhibit
activity against wild-type IRF3 (ISRE-luc) (full-length IRF3): inactive
SMILES: O=C(Nc1cccc(C(F)(F)F)c1)Nc1ccc(F)cc1NC(=O)c1cc(Cl)ccc1F [Compound 968]

inhibition of IRF3-AR(1-547)-dependent ISRE-luc reporter activity (IRF3DBD-AR(1-547)): potently inhibit
activity against wild-type IRF3 (ISRE-luc) (full-length IRF3): inactive
SMILES: O=C(Nc1cccc(Br)c1)Nc1cc(NC(=O)Nc2cccc(C(F)(F)F)c2)cc(C(F)(F)F)c1 [Compound 973]

agonism of AR T877A mutant (PSA-luc) [9]: activated
SMILES: CC(C)(O)C(=O)Nc1ccc([N+](=O)[O-])c(C(F)(F)F)c1 [hydroxyflutamide, reference compound]
